#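 The compound was tested at five concentrations on cells cultured in 96-well plates, with a 48-hour exposure period. Abbreviation: GI50, concentration required for 50% inhibition of growth.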 Activity calls are given as the source filed them. Rule as the data show it: active = GI50 up to about 1.1 µM and inactive = higher.
# How the values were obtained:
# Assay in all cases: NCI anticancer screen, dose series, 48 h
# NCI-H522 = tested on: NCI-H522
# UACC-257 = tested on: UACC-257
# SN12C = tested on: SN12C
# SF-539 = tested on: SF-539
# RXF 393 = tested on: RXF 393
# NCI-H226 = tested on: NCI-H226
# A549 = tested on: A549
# SW-620 = tested on: SW-620
# KM12 = tested on: KM12
# SK-MEL-5 = tested on: SK-MEL-5
# ACHN = tested on: ACHN
# BT-549 = tested on: BT-549
# LXFL 529 = tested on: LXFL 529
# DU-145 = tested on: DU-145
# CCRF-CEM = tested on: CCRF-CEM
# DLD-1 = tested on: DLD-1
# K562 = tested on: K562
# HOP-92 = tested on: HOP-92
# SNB-75 = tested on: SNB-75
# HOP-62 = tested on: HOP-62
# CAKI-1 = tested on: CAKI-1
# 786-0 = tested on: 786-0
# OVCAR-5 = tested on: OVCAR-5
# HCC 2998 = tested on: HCC 2998
# SR = tested on: SR
# HCT-15 = tested on: HCT-15
# DMS-273 = tested on: DMS-273
# HT-29 = tested on: HT-29
# T47D = tested on: T47D
# UACC-62 = tested on: UACC-62
# HL-60 = tested on: HL-60
# LOX IMVI = tested on: LOX IMVI
# MDA-MB-231 = tested on: MDA-MB-231
# MDA-N = tested on: MDA-N
# MDA-MB-435 = tested on: MDA-MB-435
# U-251 = tested on: U-251
# SK-MEL-28 = tested on: SK-MEL-28
# A498 = tested on: A498
# Malme-3M = tested on: Malme-3M
# OVCAR-4 = tested on: OVCAR-4
# IGROV-1 = tested on: IGROV-1
# SNB-19 = tested on: SNB-19
# MCF7 = tested on: MCF7
# SF-268 = tested on: SF-268
# KM-20L2 = tested on: KM-20L2
# SK-MEL-2 = tested on: SK-MEL-2
# TK-10 = tested on: TK-10
# NCI-H460 = tested on: NCI-H460
# OVCAR-8 = tested on: OVCAR-8
# DMS-114 = tested on: DMS-114
# SF-295 = tested on: SF-295
# HCT-116 = tested on: HCT-116
# MOLT-4 = tested on: MOLT-4
# OVCAR-3 = tested on: OVCAR-3
# Hs-578T = tested on: Hs-578T
# NCI/ADR-RES = tested on: NCI/ADR-RES
# NCI-H23 = tested on: NCI-H23
# XF498 = tested on: XF498
# PC-3 = tested on: PC-3
# M14 = tested on: M14
# UO-31 = tested on: UO-31
# SNB-78 = tested on: SNB-78
# RPMI-8226 = tested on: RPMI-8226
# M19-MEL = tested on: M19-MEL
# EKVX = tested on: EKVX
# COLO 205 = tested on: COLO 205
# SK-OV-3 = tested on: SK-OV-3
# HOP-18 = tested on: HOP-18
compound,measurement,setting,value
CC(C)(C)c1cc(C=C(C#N)C#N)cc(C(C)(C)C)c1O [TYRPHOSTIN A9],GI50,NCI-H522,0.126 µM (active)
same,GI50,UACC-257,0.281 µM (active)
same,GI50,SN12C,0.191 µM (active)
same,GI50,SF-539,0.259 µM (active)
same,GI50,RXF 393,2.55 µM (inactive)
same,GI50,NCI-H226,1.34 µM (inactive)
same,GI50,A549,0.316 µM (active)
same,GI50,SW-620,0.546 µM (active)
same,GI50,KM12,0.395 µM (active)
same,GI50,SK-MEL-5,0.376 µM (active)
same,GI50,ACHN,0.356 µM (active)
same,GI50,BT-549,0.316 µM (active)
same,GI50,LXFL 529,0.518 µM (active)
same,GI50,DU-145,0.372 µM (active)
same,GI50,CCRF-CEM,0.33 µM (active)
same,GI50,DLD-1,0.828 µM (active)
same,GI50,K562,0.305 µM (active)
same,GI50,HOP-92,0.0527 µM (active)
same,GI50,SNB-75,0.857 µM (active)
same,GI50,HOP-62,0.405 µM (active)
same,GI50,CAKI-1,0.738 µM (active)
same,GI50,786-0,0.652 µM (active)
same,GI50,OVCAR-5,4.03 µM (inactive)
same,GI50,HCC 2998,0.456 µM (active)
same,GI50,SR,0.396 µM (active)
same,GI50,HCT-15,0.366 µM
same,GI50,DMS-273,0.736 µM (active)
same,GI50,HT-29,0.375 µM (active)
same,GI50,T47D,0.135 µM (active)
same,GI50,UACC-62,0.328 µM (active)
same,GI50,HL-60,0.329 µM (active)
same,GI50,LOX IMVI,0.641 µM (active)
same,GI50,MDA-MB-231,1.56 µM (inactive)
same,GI50,MDA-N,0.608 µM (active)
same,GI50,MDA-MB-435,0.76 µM (active)
same,GI50,U-251,0.692 µM (active)
same,GI50,SK-MEL-28,3.2 µM (inactive)
same,GI50,A498,0.277 µM (active)
same,GI50,Malme-3M,0.439 µM (active)
same,GI50,OVCAR-4,0.724 µM (active)
same,GI50,IGROV-1,0.682 µM (active)
same,GI50,SNB-19,0.392 µM (active)
same,GI50,MCF7,0.391 µM (active)
same,GI50,SF-268,0.344 µM (active)
same,GI50,KM-20L2,4.61 µM (inactive)
same,GI50,SK-MEL-2,0.365 µM (active)
same,GI50,TK-10,2.05 µM (inactive)
same,GI50,NCI-H460,0.171 µM (active)
same,GI50,OVCAR-8,0.303 µM (active)
same,GI50,DMS-114,0.179 µM (active)
same,GI50,SF-295,0.455 µM (active)
same,GI50,HCT-116,0.277 µM (active)
same,GI50,MOLT-4,0.374 µM (active)
same,GI50,OVCAR-3,0.258 µM (active)
same,GI50,Hs-578T,0.384 µM (active)
same,GI50,NCI/ADR-RES,0.299 µM (active)
same,GI50,NCI-H23,0.809 µM (active)
same,GI50,XF498,0.776 µM (active)
same,GI50,PC-3,0.256 µM (active)
same,GI50,M14,0.944 µM (active)
same,GI50,UO-31,0.315 µM (active)
CC(C)OP(=O)(OC(C)C)/C(=N/Nc1ccc([N+](=O)[O-])cc1)NNC(=O)c1ccccc1,GI50,NCI-H522,42.4 µM (inactive)
same,GI50,UACC-257,37.3 µM (inactive)
same,GI50,SN12C,> 100 µM (inactive)
same,GI50,SF-539,> 100 µM (inactive)
same,GI50,NCI-H226,19 µM (inactive)
same,GI50,A549,55.6 µM (inactive)
same,GI50,SW-620,32.8 µM (inactive)
same,GI50,KM12,38.3 µM (inactive)
same,GI50,SK-MEL-5,17.4 µM (inactive)
same,GI50,ACHN,82.4 µM (inactive)
same,GI50,LXFL 529,20 µM (inactive)
same,GI50,CCRF-CEM,17.7 µM (inactive)
same,GI50,DLD-1,39.2 µM (inactive)
same,GI50,K562,29.8 µM (inactive)
same,GI50,SNB-78,24.4 µM (inactive)
same,GI50,HOP-92,24.9 µM (inactive)
same,GI50,SNB-75,73.5 µM (inactive)
same,GI50,HOP-62,> 100 µM (inactive)
same,GI50,CAKI-1,76.6 µM (inactive)
same,GI50,786-0,> 100 µM (inactive)
same,GI50,OVCAR-5,> 100 µM (inactive)
same,GI50,RPMI-8226,29.7 µM (inactive)
same,GI50,HCC 2998,25.8 µM (inactive)
same,GI50,SR,22.3 µM (inactive)
same,GI50,M19-MEL,20.9 µM (inactive)
same,GI50,HCT-15,48.1 µM
same,GI50,DMS-273,> 10 µM (inactive)
same,GI50,UACC-62,20.5 µM (inactive)
same,GI50,HL-60,19.7 µM (inactive)
same,GI50,LOX IMVI,21.3 µM (inactive)
same,GI50,U-251,26.1 µM (inactive)
same,GI50,SK-MEL-28,40.6 µM (inactive)
same,GI50,Malme-3M,> 100 µM (inactive)
same,GI50,OVCAR-4,31.4 µM (inactive)
same,GI50,SNB-19,73.8 µM (inactive)
same,GI50,SF-268,36.7 µM (inactive)
same,GI50,KM-20L2,48.4 µM (inactive)
same,GI50,SK-MEL-2,43.2 µM (inactive)
same,GI50,TK-10,> 100 µM (inactive)
same,GI50,NCI-H460,28.8 µM (inactive)
same,GI50,OVCAR-8,34.7 µM (inactive)
same,GI50,DMS-114,21.8 µM (inactive)
same,GI50,HCT-116,34.2 µM (inactive)
same,GI50,MOLT-4,17.2 µM (inactive)
same,GI50,EKVX,> 100 µM (inactive)
same,GI50,OVCAR-3,34.3 µM (inactive)
same,GI50,COLO 205,36.1 µM (inactive)
same,GI50,NCI-H23,24.7 µM (inactive)
same,GI50,XF498,24.8 µM (inactive)
same,GI50,M14,33.2 µM (inactive)
same,GI50,UO-31,41.5 µM (inactive)
CC(=O)Oc1c(OC(C)=O)c(-c2ccc(O)c(O)c2)c(O)c(O)c1-c1ccc(O)cc1,GI50,NCI-H522,17.7 µM (inactive)
same,GI50,UACC-257,> 100 µM (inactive)
same,GI50,SN12C,> 100 µM (inactive)
same,GI50,SF-539,> 100 µM (inactive)
same,GI50,NCI-H226,> 100 µM (inactive)
same,GI50,A549,> 100 µM (inactive)
same,GI50,SW-620,42.7 µM (inactive)
same,GI50,KM12,> 100 µM (inactive)
same,GI50,SK-MEL-5,19.7 µM (inactive)
same,GI50,CCRF-CEM,61 µM (inactive)
same,GI50,DLD-1,> 100 µM (inactive)
same,GI50,K562,50.7 µM (inactive)
same,GI50,HOP-92,30.2 µM (inactive)
same,GI50,SNB-75,97.5 µM (inactive)
same,GI50,HOP-62,> 100 µM (inactive)
same,GI50,CAKI-1,> 100 µM (inactive)
same,GI50,OVCAR-5,> 100 µM (inactive)
same,GI50,RPMI-8226,> 100 µM (inactive)
same,GI50,HCC 2998,> 100 µM (inactive)
same,GI50,M19-MEL,24.4 µM (inactive)
same,GI50,HCT-15,> 100 µM
same,GI50,DMS-273,> 100 µM (inactive)
same,GI50,HT-29,> 100 µM (inactive)
same,GI50,UACC-62,27.4 µM (inactive)
same,GI50,HL-60,54.2 µM (inactive)
same,GI50,LOX IMVI,29.9 µM (inactive)
same,GI50,U-251,> 100 µM (inactive)
same,GI50,SK-MEL-28,> 100 µM (inactive)
same,GI50,A498,> 100 µM (inactive)
same,GI50,OVCAR-4,> 100 µM (inactive)
same,GI50,IGROV-1,93.1 µM (inactive)
same,GI50,SNB-19,> 100 µM (inactive)
same,GI50,MCF7,> 100 µM (inactive)
same,GI50,SF-268,> 100 µM (inactive)
same,GI50,SK-MEL-2,29.4 µM (inactive)
same,GI50,NCI-H460,> 100 µM (inactive)
same,GI50,OVCAR-8,46.2 µM (inactive)
same,GI50,DMS-114,21.3 µM (inactive)
same,GI50,SF-295,> 100 µM (inactive)
same,GI50,HCT-116,> 100 µM (inactive)
same,GI50,MOLT-4,> 100 µM (inactive)
same,GI50,EKVX,> 100 µM (inactive)
same,GI50,OVCAR-3,> 100 µM (inactive)
same,GI50,NCI/ADR-RES,> 100 µM (inactive)
same,GI50,COLO 205,> 100 µM (inactive)
same,GI50,NCI-H23,> 100 µM (inactive)
same,GI50,SK-OV-3,> 100 µM (inactive)
same,GI50,XF498,82.2 µM (inactive)
same,GI50,HOP-18,> 100 µM (inactive)
same,GI50,UO-31,> 100 µM (inactive)

# Reference: ChEMBL document CHEMBL1201862, “PubChem BioAssay data set” (2004)
